Measurements reported in patent US20260125686A1, “COMPOSITIONS AND METHODS FOR MODULATION OF CFTR” (Cystic Fibrosis Foundation, priority 2022, published 2026).

Legend:
Del23-27 CFTR protein = biological target: T1, Del23-27 CFTR protein (Homo sapiens, UniProt P13569); test: TECC-24 conductance assay in D23-27 (Del23-27) clonal lines; format: cell-based
T1 construct: contain the first 1239 amino acids of a WT CFTR; endogenous in cells; host or cells: 16HBE14o- derived Del23-27 clones 2-H07, 3-B09, 3-D01 (CRISPR genomic deletion)
T1 sequence (P13569 with tags, fused parts or gaps): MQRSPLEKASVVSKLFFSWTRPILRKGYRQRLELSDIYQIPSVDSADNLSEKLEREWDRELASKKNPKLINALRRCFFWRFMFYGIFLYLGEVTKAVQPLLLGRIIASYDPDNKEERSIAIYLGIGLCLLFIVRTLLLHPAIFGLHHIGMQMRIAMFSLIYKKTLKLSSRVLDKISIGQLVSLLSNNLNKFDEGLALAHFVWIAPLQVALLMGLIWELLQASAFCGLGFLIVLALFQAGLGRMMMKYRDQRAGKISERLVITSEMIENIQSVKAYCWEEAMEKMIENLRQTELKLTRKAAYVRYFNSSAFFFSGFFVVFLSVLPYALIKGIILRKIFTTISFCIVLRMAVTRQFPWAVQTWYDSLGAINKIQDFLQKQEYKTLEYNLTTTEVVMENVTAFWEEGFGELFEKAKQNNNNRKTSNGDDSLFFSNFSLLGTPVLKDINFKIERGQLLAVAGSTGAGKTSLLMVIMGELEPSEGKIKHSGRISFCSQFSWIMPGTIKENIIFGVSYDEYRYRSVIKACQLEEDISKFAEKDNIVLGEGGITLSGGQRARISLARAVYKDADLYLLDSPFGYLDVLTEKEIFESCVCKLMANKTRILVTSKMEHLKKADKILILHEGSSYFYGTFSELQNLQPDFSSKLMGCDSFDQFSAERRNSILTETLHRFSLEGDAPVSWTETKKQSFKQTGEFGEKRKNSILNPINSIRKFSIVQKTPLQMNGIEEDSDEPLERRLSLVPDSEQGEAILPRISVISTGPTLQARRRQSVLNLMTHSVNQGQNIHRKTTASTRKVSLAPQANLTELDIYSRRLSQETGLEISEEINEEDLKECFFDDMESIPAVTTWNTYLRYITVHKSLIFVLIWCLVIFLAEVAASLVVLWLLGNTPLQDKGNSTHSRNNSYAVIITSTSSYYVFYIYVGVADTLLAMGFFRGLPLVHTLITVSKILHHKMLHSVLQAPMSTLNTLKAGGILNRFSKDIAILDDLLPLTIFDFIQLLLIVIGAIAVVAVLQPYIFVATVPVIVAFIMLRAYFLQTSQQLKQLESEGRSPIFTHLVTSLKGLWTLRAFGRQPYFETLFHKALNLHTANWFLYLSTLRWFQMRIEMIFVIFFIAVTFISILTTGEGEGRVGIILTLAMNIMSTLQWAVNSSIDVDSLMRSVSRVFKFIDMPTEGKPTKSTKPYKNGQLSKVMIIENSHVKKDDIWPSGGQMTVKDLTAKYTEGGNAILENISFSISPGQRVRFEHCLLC
Method: Electrophysiology. Clonal lines were seeded at a density of 4.5×10^5 cells cm-2 onto HTS Transwell 24-well filter inserts pre-coated with human collagen type IV. Cells were grown as submerged cultures in MEM (Gibco, 11095) containing 10% FBS and 1% Pen/Strep, and incubated at 37° C. and 5% CO2. Cells were treated from both the basolateral and apical side with fresh medium containing either control (vehicle) or test article for the treatment time indicated in the figure legends. After a total of 7 days, 16HBE cells typically formed electrically tight epithelia with a transepithelial resistance (Rt) of 200-600 Ω·cm2 and CFTR-mediated Cl— equivalent current (Ieq) was determined as described below. Prior to functional (Ieq) studies, MEM was replaced with fresh HEPES-buffered (pH 7.4) solutions (assay buffer). A driving force for chloride ions was established through application of a basolateral to apical chloride ion gradient (see buffer composition below). Cell plates were mounted onto an automated robotic assay platform and equilibrated at ˜36° C. for 90 min. After equilibration, transepithelial voltage (Vt) and resistance (Rt) were monitored at ˜5 min intervals using a 24-channel transepithelial current clamp amplifier (TECC-24, EP Design, Bertem, Belgium). Electrode potential differences for each pair of Ag/AgCl voltage electrodes were also monitored at 5 min intervals by taking voltage measurements from a control plate with matching buffer solutions and 16HBE cells that were left untreated. Ieq was calculated from values of Vt and Rt using Ohm's law after correcting for series resistance and (electrode) voltage offsets unrelated to Vt. Ieq traces are plotted as mean±SD (n=3). The first 4 data points reflect baseline Ieq currents prior to sequential stimulation of CFTR with forskolin (10 μM) and VX-770/ivacaftor (1 μM). The last six data points were recorded in the presence of CFTR inhibitor CFTRinh-172 (20 μM). Agonists/antagonists were pre-diluted to 10-fold concentrations in assay buffer and add-ed to either the basolateral (forskolin) or apical (forskolin, VX-770/ivacaftor, and CFTRinh-172) side of the membrane (assay plates only). CFTR-mediated changes in Ieq, (i.e., delta forskolin, delta VX-770, delta CFTRinh-172, or the area under the curve (AUC) between forskolin and CFTRinh-172 addition) are used as a measure of functional CFTR surface expression or treatment-related functional rescue of mutant CFTR. Assay buffer: CFTR-mediated transepithelial currents were recorded using a Cl— concentration gradient. The basolateral solution contained (mM): 137 NaCl, 4 KCl, 1.8 CaCl2, 1 MgCl2, 10 HEPES and D-Glucose, adjusted to pH 7.4 with NaOH/HCl ([CI-] total: 146.6 mM). The apical solution was matched to the basolateral except for (mM): 137 Na-gluconate replaced 137 NaCl ([Cl—] total: 9.6 mM). To assess the functional consequence of forcing intron 22 ApA usage, D23-27 clonal lines 2-H07, 3-B09, 3-D01 were subjected to 48 hours treatment of vehicle control (0.002% DMSO) or VX-445/VX-661 (3/3 μM), and acute in assay addition of VX-770 (1 μM) and CFTR function was assessed using the transepithelial current clamp (TECC) conductance assay. Potentiators/correctors Trikafta restored the function of the Del23-27 CFTR protein to a significant fraction of WT function, as shown in FIG. 11A. Briefly, transepithelial chloride conductance assay (TECC-24 assay) was conducted in WT 16HBE14o- (treated with vehicle), 16HBEge-F508del (treated with VX-809), and Del23-27 clones (treated with VX-445/661), using sequential treatment of forskolin, VX-770, and CFTR inhibitor 172. In the presence of VX-445/VX-661/VX-770 (Trikafta), Del23-27 CFTR protein function was restored, shown as chloride conductance induced by VX-770 and inhibited by to CFTR (inh)-172. CFTR function can be assayed by comparing the induced chloride conductance area under curve (AUC) of the cell lines utilized. […]

F508del CFTR = biological target: T2, F508del CFTR (Homo sapiens, UniProt P13569, DEL508-508); test: TECC-24 assay of transiently expressed CFTR variants in FRT cells; format: cell-based, rat; conditions: FRT cells expressing F508del cDNA; AUC of CFTR-mediated chloride current
T2 construct: expressed in transfected cells; host or cells: Fischer Rat Thyroid (FRT) cells
T2 sequence (P13569 with tags, fused parts or gaps DEL508-508): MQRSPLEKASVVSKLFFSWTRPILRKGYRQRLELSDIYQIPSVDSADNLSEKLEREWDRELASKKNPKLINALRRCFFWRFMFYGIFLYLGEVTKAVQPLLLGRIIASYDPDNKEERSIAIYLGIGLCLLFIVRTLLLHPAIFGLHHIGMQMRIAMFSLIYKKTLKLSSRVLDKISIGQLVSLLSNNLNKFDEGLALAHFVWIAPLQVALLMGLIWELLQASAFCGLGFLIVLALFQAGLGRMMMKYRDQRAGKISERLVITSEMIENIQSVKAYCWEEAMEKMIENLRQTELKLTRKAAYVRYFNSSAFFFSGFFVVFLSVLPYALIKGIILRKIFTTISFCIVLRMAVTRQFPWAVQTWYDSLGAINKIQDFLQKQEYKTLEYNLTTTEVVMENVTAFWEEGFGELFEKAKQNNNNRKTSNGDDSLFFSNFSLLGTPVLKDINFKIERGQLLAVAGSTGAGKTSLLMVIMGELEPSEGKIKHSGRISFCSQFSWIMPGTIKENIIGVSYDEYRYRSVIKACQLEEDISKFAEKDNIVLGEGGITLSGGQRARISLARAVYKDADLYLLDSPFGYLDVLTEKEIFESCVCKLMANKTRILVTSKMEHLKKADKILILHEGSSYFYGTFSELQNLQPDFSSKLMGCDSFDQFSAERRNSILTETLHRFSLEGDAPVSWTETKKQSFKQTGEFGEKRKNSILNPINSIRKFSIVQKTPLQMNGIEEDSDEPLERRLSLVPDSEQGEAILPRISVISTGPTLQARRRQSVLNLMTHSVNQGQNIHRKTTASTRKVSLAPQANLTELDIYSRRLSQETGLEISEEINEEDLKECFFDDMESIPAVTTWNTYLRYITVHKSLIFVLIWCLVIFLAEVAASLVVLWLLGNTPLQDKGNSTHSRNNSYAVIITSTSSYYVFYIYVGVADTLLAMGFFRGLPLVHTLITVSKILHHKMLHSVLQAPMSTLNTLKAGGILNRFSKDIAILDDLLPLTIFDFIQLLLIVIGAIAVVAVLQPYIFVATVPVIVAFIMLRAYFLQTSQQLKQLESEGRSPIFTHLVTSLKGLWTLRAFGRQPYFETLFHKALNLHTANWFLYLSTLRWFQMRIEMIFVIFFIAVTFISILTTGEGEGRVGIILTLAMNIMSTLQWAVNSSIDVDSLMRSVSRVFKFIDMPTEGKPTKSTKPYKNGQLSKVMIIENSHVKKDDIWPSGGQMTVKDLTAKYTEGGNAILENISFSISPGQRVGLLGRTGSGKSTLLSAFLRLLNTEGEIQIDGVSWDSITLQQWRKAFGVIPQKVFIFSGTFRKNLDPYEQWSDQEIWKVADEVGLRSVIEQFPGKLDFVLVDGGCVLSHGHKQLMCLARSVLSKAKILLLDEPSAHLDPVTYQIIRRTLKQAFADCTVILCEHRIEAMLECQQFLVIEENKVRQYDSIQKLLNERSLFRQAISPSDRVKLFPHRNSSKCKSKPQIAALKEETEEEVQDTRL

## elexacaftor/ivacaftor/tezacaftor [Trikafta]
Del23-27 CFTR protein; 2-H07, VX-445/VX-661/VX-770 (3/3/3 μM)
  Cl— current as WT 16HBE14o- function (FSK only): ~42%
Del23-27 CFTR protein; 2-H07 clonal line, VX-770 dose escalation, 3.0 μM (+) VX-445/VX-661 (3/3/3 μM)
  maximum CFTR Cl— current, FSK+VX-770 AUC/min: 50.6 μA/cm^2
F508del CFTR
  F508del CFTR function, of that of wildtype: about 35%
